Experimental findings from EP3623369A1, “NOVEL MORPHOLINYL AMINE COMPOUNDS FOR THE TREATMENT OF AUTOIMMUNE DISEASE” (F. Hoffmann-La Roche AG, priority 2018, dated 2020) are described below.

This assay has as its target T1, human TLR8 (Homo sapiens, UniProt Q9NR97).
T1 sequence (Q9NR97 27-1041): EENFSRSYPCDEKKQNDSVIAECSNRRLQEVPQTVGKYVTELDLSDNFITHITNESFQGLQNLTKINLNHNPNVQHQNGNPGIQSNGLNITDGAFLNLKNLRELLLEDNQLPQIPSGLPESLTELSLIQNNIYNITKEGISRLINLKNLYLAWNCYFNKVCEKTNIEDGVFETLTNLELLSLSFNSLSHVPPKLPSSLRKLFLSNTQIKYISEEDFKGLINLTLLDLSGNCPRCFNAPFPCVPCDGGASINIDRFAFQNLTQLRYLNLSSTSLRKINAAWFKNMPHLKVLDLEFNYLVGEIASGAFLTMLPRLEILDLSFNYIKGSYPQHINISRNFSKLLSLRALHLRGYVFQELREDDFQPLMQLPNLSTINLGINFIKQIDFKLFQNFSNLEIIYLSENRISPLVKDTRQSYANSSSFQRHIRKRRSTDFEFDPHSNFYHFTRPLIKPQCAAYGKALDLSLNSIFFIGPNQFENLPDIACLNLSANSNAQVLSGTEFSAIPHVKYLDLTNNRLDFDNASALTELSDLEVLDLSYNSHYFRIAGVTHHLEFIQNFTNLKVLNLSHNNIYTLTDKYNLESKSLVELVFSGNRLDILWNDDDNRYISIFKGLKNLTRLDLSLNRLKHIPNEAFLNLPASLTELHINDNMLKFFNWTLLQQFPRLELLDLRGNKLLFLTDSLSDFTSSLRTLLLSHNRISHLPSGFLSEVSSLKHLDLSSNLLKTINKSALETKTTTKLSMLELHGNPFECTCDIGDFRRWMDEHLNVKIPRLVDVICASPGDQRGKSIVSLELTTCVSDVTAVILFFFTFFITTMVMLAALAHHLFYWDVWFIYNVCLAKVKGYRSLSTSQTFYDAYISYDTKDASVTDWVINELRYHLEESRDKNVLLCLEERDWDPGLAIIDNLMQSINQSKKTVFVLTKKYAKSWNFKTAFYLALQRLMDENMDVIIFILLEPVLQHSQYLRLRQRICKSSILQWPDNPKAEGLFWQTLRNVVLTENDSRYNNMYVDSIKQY
The experiment in a line: HEK293-Blue-hTLR-8 cells assay (SEAP reporter, R848 stimulation). The assay is classed as cell-based. The settings on record: HEK293-Blue-hTLR8 cells, R848, 20 hrs; 0.003 is the lowest tested concentration; read-out: HEK/hTLR8 IC50. As to the method:
The following tests were carried out in order to determine the activity of the compounds of formula (I) or (Ia) in HEK293-Blue-hTLR-7/8/9 cells assay.
HEK293-Blue-hTLR-8 cells assay:
A stable HEK293-Blue-hTLR-8 cell line was purchased from InvivoGen (Cat.#: hkb-htlr8, San Diego, California, USA). These cells were originally designed for studying the stimulation of human TLR8 by monitoring the activation of NF-κB. A SEAP (secreted embryonic alkaline phosphatase) reporter gene was placed under the control of the IFN-β minimal promoter fused to five NF-κB and AP-1-binding sites. The SEAP was induced by activating NF-κB and AP-1 via stimulating HEK-Blue hTLR8 cells with TLR8 ligands. Therefore the reporter expression was declined by TLR8 antagonist under the stimulation of a ligand, such as R848, for incubation of 20 hrs. The cell culture supernatant SEAP reporter activity was determined using QUANTI-Blue™ kit (Cat.#: rep-qb1, Invivogen, San Diego, Ca, USA) at a wavelength of 640 nm, a detection medium that turns purple or blue in the presence of alkaline phosphatase.
HEK293-Blue-hTLR8 cells were incubated at a density of 250,000∼450,000 cells/mL in a volume of 170 µL in a 96-well plate in Dulbecco's Modified Eagle's medium (DMEM) containing 4.5 g/L glucose, 50 U/mL penicillin, […], […], 2 mM L-glutamine, 10% (v/v) heat-inactivated fetal bovine serum with addition of 20 µL test compound in a serial dilution in the presence of final DMSO at 1% and 10 µL of 60uM R848 in above DMEM, perform incubation under 37 °C in a CO2 incubator for 20 hrs. Then 20 µL of the supernatant from each well was incubated with 180 µL Quanti-blue substrate solution at 37°C for 2 hrs and the absorbance was read at 620∼655 nm using a spectrophotometer. The signalling pathway that TLR8 activation leads to downstream NF-κB activation has been widely accepted, and therefore similar reporter assay was modified for evaluating TLR8 antagonist.

For the molecule “3-fluoro-4-[(2R,6S)-2-methyl-6-[(5-piperazin-1-ylisoindolin-2-yl)methyl]morpholin-4-yl]pyrazolo[1,5-a]pyridine-7-carbonitrile [Example 7]”, the IC50 worked out at 13 nM.
With “5-[(2S,6R)-2-[[5-[3-(hydroxymethyl)piperazin-1-yl]isoindolin-2-yl]methyl]-6-methyl-morpholin-4-yl]quinoline-8-carbonitrile [Example 85]” the figure was 17 nM; with `C[C@@H]1CN(c2ccc3c(c2)CN(C[C@H]2CN(c4ccc(C#N)c5ncccc45)C[C@@H](C)O2)C3)C[C@@H](C)N1` (mixture of isomers) [Example 57, Trans-5-[(2R,6S)-2-methyl-6-[[5-[3,5-dimethylpiperazin-1-yl]isoindolin-2-yl]methyl]morpholin-4-yl]quinoline-8-carbonitrile], 12 nM; with `C[C@@H]1CN(c2ccc(C#N)c3ncccc23)C[C@H](CNCc2ccccc2)O1` [ER-886509, reference compound], 139 nM.
With `C[C@@H]1CN(c2ccc(C#N)n3nccc23)C[C@H](CN2Cc3ccc(N4CCNCC4)cc3C2)O1` [Example 4, 4-[(2R,6S)-2-methyl-6-[(5-piperazin-1-ylisoindolin-2-yl)methyl]morpholin-4-yl]pyrazolo[1,5-a]pyridine-7-carbonitrile], the IC50 came out at 57 nM.
Consider `C[C@@H]1CN(c2ccc(C#N)n3nccc23)C[C@H](CN2Cc3ccc(C4CCNCC4)cc3C2)O1` [Example 8, 4-[(2R,6S)-2-methyl-6-[[5-(4-piperidyl)isoindolin-2-yl]methyl]morpholin-4-yl]pyrazolo[1,5-a]pyridine-7-carbonitrile], for which the IC50 was determined as 79 nM.
Consider `C[C@@H]1CN(c2ccc(C#N)n3nccc23)C[C@H](CN2Cc3ccc(C4CCNC4)cc3C2)O1` (stereo partly drawn) [Example 9, 4-[(2R,6S)-2-methyl-6-[(5-pyrrolidin-3-ylisoindolin-2-yl)methyl]morpholin-4-yl]pyrazolo[1,5-a]pyridine-7-carbonitrile], for which the IC50 amounted to 90 nM.
Take `C[C@@H]1CN(c2ccc(C#N)n3nccc23)C[C@H](CN2CCc3cc(N4CCNCC4)ccc3C2)O1` [Example 10, 4-[(2R,6S)-2-methyl-6-[(6-piperazin-1-yl-3,4-dihydro-1H-isoquinolin-2-yl)methyl]morpholin-4-yl]pyrazolo[1,5-a]pyridine-7-carbonitrile]: the IC50 was found to be 52 nM.
With `C[C@@H]1CN(c2ccc(C#N)n3nccc23)C[C@H](CN2CCc3ccc(N4CCNCC4)cc3C2)O1` [Example 11, 4-[(2R,6S)-2-methyl-6-[(7-piperazin-1-yl-3,4-dihydro-1H-isoquinolin-2-yl)methyl]morpholin-4-yl]pyrazolo[1,5-a]pyridine-7-carbonitrile], the IC50 was 229 nM.
With `C[C@@H]1CN(c2ccc(C#N)c3nccnc23)C[C@H](CN2Cc3ccc(N4CCNCC4)cc3C2)O1` [Example 12, 8-[(2R,6S)-2-methyl-6-[(5-piperazin-1-ylisoindolin-2-yl)methyl]morpholin-4-yl]quinoxaline-5-carbonitrile] the figure was under 3 nM.
Consider `C[C@@H]1CN(c2ccc(C#N)c3nccnc23)C[C@H](CN2CCc3cc(N4CCNCC4)ccc3C2)O1` [Example 13, 8-[(2R,6S)-2-methyl-6-[(6-piperazin-1-yl-3,4-dihydro-1H-isoquinolin-2-yl)methyl]morpholin-4-yl]quinoxaline-5-carbonitrile], for which the IC50 was under 3 nM.
In the case of `C[C@@H]1CN(c2ccc(C#N)n3ncc(F)c23)C[C@H](CN2CCc3cc(N4CCNCC4)ccc3C2)O1` [Example 14, 3-fluoro-4-[(2R,6S)-2-methyl-6-[(6-piperazin-1-yl-3,4-dihydro-1H-isoquinolin-2-yl)methyl]morpholin-4-yl]pyrazolo[1,5-a]pyridine-7-carbonitrile], the IC50 was 29 nM.
`C[C@@H]1CN(c2ccc(C#N)n3nccc23)C[C@H](CN2CCc3cc(N4CCN(C)CC4)ccc3C2)O1` [Example 15, 4-[(2R,6S)-2-methyl-6-[[6-(4-methylpiperazin-1-yl)-3,4-dihydro-1H-isoquinolin-2-yl]methyl]morpholin-4-yl]pyrazolo[1,5-a]pyridine-7-carbonitrile]: the IC50 stood at 21 nM.
Consider `C[C@@H]1CN(c2ccc(C#N)n3nccc23)C[C@H](CNCc2ccc(N3CCNCC3)cc2)O1` [Example 16, 4-[(2R,6S)-2-methyl-6-[[(4-piperazin-1-ylphenyl)methylamino]methyl]morpholin-4-yl]pyrazolo[1,5-a]pyridine-7-carbonitrile], for which the IC50 stood at 16 nM.
As for `C[C@@H]1CN(c2ccc(C#N)n3nccc23)C[C@H](CN2Cc3ccc(N4CCN(C)CC4)cc3C2)O1` [Example 17, 4-[(2R,6S)-2-methyl-6-[[5-(4-methylpiperazin-1-yl)isoindolin-2-yl]methyl]morpholin-4-yl]pyrazolo[1,5-a]pyridine-7-carbonitrile], the IC50 amounted to 52 nM.
Consider `C[C@@H]1CN(c2ccc(C#N)n3nccc23)C[C@H](CN2Cc3cc(N4CCNCC4)cnc3C2)O1` [Example 18, 4-[(2R,6S)-2-methyl-6-[(3-piperazin-1-yl-5,7-dihydropyrrolo[3,4-b]pyridin-6-yl)methyl]morpholin-4-yl]pyrazolo[1,5-a]pyridine-7-carbonitrile], for which the IC50 worked out at 31 nM.
With `C[C@@H]1CN(c2ccc(C#N)c3ncccc23)C[C@H](CN2CCc3cc(N4CCNCC4)ccc3C2)O1` [Example 19, 5-[(2R,6S)-2-methyl-6-[(6-piperazin-1-yl-3,4-dihydro-1H-isoquinolin-2-yl)methyl]morpholin-4-yl]quinoline-8-carbonitrile] the figure was 6 nM.
For the molecule `C[C@@H]1CN(c2ccc(C#N)c3ncccc23)C[C@H](CN2Cc3cc(N4CCNCC4)cnc3C2)O1` [Example 20, 5-[(2R,6S)-2-methyl-6-[(3-piperazin-1-yl-5,7-dihydropyrrolo[3,4-b]pyridin-6-yl)methyl]morpholin-4-yl]quinoline-8-carbonitrile], the IC50 was 4 nM.
For the molecule `C[C@@H]1CN(c2ccc(C#N)c3ncccc23)C[C@H](CN2Cc3ccc(N4CCNCC4)cc3C2)O1` [Example 21, 5-[(2R,6S)-2-methyl-6-[(5-piperazin-1-ylisoindolin-2-yl)methyl]morpholin-4-yl]quinoline-8-carbonitrile], the IC50 worked out at 5 nM.
For `C[C@@H]1CN(c2ccc(C#N)c3ncsc23)C[C@H](CN2Cc3ccc(N4CCNCC4)cc3C2)O1` [Example 23, 7-[(2R,6S)-2-methyl-6-[(5-piperazin-1-ylisoindolin-2-yl)methyl]morpholin-4-yl]-1,3-benzothiazole-4-carbonitrile], the IC50 was under 3 nM.
For the molecule `C[C@@H]1CN(c2ccc(C#N)c3ncsc23)C[C@H](CN2CCc3cc(N4CCNCC4)ccc3C2)O1` [Example 24, 7-[(2R,6S)-2-methyl-6-[(6-piperazin-1-yl-3,4-dihydro-1H-isoquinolin-2-yl)methyl]morpholin-4-yl]-1,3-benzothiazole-4-carbonitrile], the IC50 was found to be 4 nM.
With `C[C@@H]1CN(c2ccc(C#N)c3ncsc23)C[C@H](CN2Cc3cc(N4CCNCC4)cnc3C2)O1` [Example 25, 7-[(2R,6S)-2-methyl-6-[(3-piperazin-1-yl-5,7-dihydropyrrolo[3,4-b]pyridin-6-yl)methyl]morpholin-4-yl]-1,3-benzothiazole-4-carbonitrile] the figure was under 3 nM.
